# Values quoted from earlier work, collected in US20100272789A1, “EXTERNAL MEDICINE FOR TREATMENT OR PREVENTION” (priority 2007, published 2010).
# Conditions: 20 degrees Celsius at 1 atm
smiles,measurement,value
"[HH] [hydrogen molecules, hydrogen]",solubility of hydrogen molecules into water,1.6 µg/mL
